In ChEMBL document CHEMBL1127067 (1993):

What was measured:
Assay type in all cases: functional
Mus musculus [1] = assay: Antitumor activity against B-16 melanoma in BDF1 mice expressed as percentage increase in life span at optimum dose of 6 mg/kg; details: B16
Mus musculus [2] = species on record: Mus musculus; assay: Number of survivors after treating 12 mice (infected with B16 melanoma) for 60 days
Mus musculus [3] = species on record: Mus musculus; assay: Number of survivors after treating 42 mice (infected with P388 leukemia) for 30 days
Mus musculus [4] = assay: Antitumor activity against P388 leukemia in BDF1/CDF1 mice expressed as percentage increase in life span at optimum dose of 12.5 mg/kg

## C(=N\NC1=NCCN1)/c1c2ccccc2c(/C=N/NC2=NCCN2)c2ccccc12 [BISANTRENE]
Mus musculus [1]
  ILS at 6 mg/kg: 122%
Mus musculus [2]
  Cures: 2
Mus musculus [3]
  Cures: 17
Mus musculus [4]
  ILS at 12.5 mg/kg: 137%
